From patent publication US12678443B2, “Medicament for preventing and/or treating dry eye” (Santen Pharmaceutical Co., Ltd., priority 2021, dated 2026)

Experiments:
[1] = test system: normal male cynomolgus monkeys; test: Tear film break-up time (TBUT) after single ocular instillation (Tests 1 and 2); assay type: in vivo, cynomolgus monkey; conditions: for extension of TBUT: single ocular instillation 1% (w/v) ophthalmic solution, FIG. 2
[2] = test system: dry-eye model SD (Sprague-Dawley) rat; test: Quantity of tears by Schirmer strip in the exorbital-lacrimal-gland-removed dry-eye model (Tests 3 and 4); assay type: in vivo; conditions: for Incremental difference in Schirmer's test at 0.5 hours after ocular instillation / Incremental difference in Schirmer's test at 8 hours after ocular instillation: difference from vehicle-instilled group, rat dry-eye model
Method: A somnopentyl injection five-fold diluted with physiological saline was intraperitoneally administered to a normal male SD (Sprague-Dawley) rat by 2.5 mL/kg, and the rat was given general anesthesia, followed by keeping the anesthetized state by inhalation of about 1 to 3% isoflurane. Then, the skin on each cheek was incised to remove the exorbital lacrimal gland, followed by suturation with a Michel suture clamp. In this test, an individual wherein reduction of tears was confirmed after 13 weeks from the removal of exorbital lacrimal gland was included as the experimental animal.
Half an hour after treatment of general anesthesia, Schirmer strip (1 mm×17 mm) was inserted to conjunctival sac of the lower eyelid of a rat, and then after 1 minute of the insertion, the wet part of the Schirmer strip was measured in increments of 0.5 mm. (N=14 or 16 eyes)
The quantity of tears was measured in a similar manner to Test 3. (N=10 eyes)

[3] = cited from earlier work; for secretion of tears and tear proteins: Patent Literature 1
[4] = test system: normal male cynomolgus monkeys; test: Intraocular pressure test, twice daily repeated instillation (Test 5); assay type: in vivo, cynomolgus monkey; conditions: 0.01% and 0.1% ophthalmic solutions, twice daily repeatedly, Day 1, 7, 14; FIG. 4
Method: Specifically, one drop of 0.4% oxybuprocaine hydrochloride ophthalmic solution (trade name: Benoxil (registered trademark) ophthalmic solution 0.4%) was instilled to the right eye so as to provide surface anesthesia, and then the intraocular pressure was measured three times with Mentor tonometer (applanation), followed by calculation of the average. (N=6 eyes)

β1 adrenergic receptors = β1 adrenergic receptors (Homo sapiens, UniProt P08588); conditions: cited from earlier work
Chain of β1 adrenergic receptors (P08588 whole entry): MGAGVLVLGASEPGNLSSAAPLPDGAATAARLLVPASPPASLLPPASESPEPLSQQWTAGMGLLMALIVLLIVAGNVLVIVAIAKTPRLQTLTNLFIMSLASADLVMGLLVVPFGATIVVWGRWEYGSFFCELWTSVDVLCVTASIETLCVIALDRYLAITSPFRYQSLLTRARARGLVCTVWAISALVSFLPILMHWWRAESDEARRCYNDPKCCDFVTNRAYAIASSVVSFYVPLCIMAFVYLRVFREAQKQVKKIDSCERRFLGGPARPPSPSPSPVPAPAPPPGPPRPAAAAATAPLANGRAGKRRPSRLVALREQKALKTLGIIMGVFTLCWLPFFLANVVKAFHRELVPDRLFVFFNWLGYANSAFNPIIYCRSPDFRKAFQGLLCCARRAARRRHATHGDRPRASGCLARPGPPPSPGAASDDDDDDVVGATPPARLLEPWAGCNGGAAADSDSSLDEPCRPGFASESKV

[5] = 0.001% ophthalmic solution, 8 hours
[6] = 0.01% ophthalmic solution, 8 hours
[7] = 0.1% ophthalmic solution, 8 hours
[8] = 1% ophthalmic solution, 8 hours

Structure (SMILES) | extension of TBUT [1] | Incremental difference in Schirmer's test at 0.5 hours after ocular instillation ([2]; 0.001% ophthalmic solution) [mm/min] | Incremental difference in Schirmer's test at 8 hours after ocular instillation [2, 5] [mm/min] | Incremental difference in Schirmer's test at 0.5 hours after ocular instillation ([2]; 0.01% ophthalmic solution) [mm/min] | Incremental difference in Schirmer's test at 8 hours after ocular instillation [2, 6] [mm/min] | Incremental difference in Schirmer's test at 0.5 hours after ocular instillation ([2]; 0.1% ophthalmic solution) [mm/min] | Incremental difference in Schirmer's test at 8 hours after ocular instillation [2, 7] [mm/min] | Incremental difference in Schirmer's test at 0.5 hours after ocular instillation ([2]; 1% ophthalmic solution) [mm/min] | Incremental difference in Schirmer's test at 8 hours after ocular instillation [2, 8] [mm/min] | secretion of tears and tear proteins [3] | also measured
CC(C)(C)NCC(O)c1cc(Cl)c(N)c(Cl)c1 (stereo not shown) [clenbuterol] | not confirmed | 2.0 | 0.3 | 2.7 | 1.1 | 3.6 | 2.4 | 3.0 | 3.9 | confirmed to enhance | 
CC(C)(C)NCC(O)c1ccc(O)c(CO)c1 (stereo not shown) [salbutamol] |  |  |  |  |  |  |  |  |  |  | lacrimal secretion ([3]; Patent Literature 2): confirmed to enhance lacrimal secretion; effects on the treatment of dry eye ([3]; Patent Literature 3): did not have sufficient effects
COc1ccc(CC(C)(C)NC[C@H](O)c2cc(O)cc3c2OCC(=O)N3)cc1 [olodaterol, 6-hydroxy-8-((1R)-1-hydroxy-2-{[2-(4-methoxyphenyl)-1,1-dimethylethyl]amino}-ethyl)-2H-1,4-benzoxazin-3-(4H)-one] |  | 7.2 | 2.1 | 6.9 | 2.8 |  |  |  |  |  | effect of stabilizing tear film ([1]; low concentration of 0.0001%, FIG. 1): confirmed to show the effect of stabilizing tear film; TBUT-extending effect ([1]; single ocular instillation 0.0001, 0.001, 0.01% (w/v), 20 μL/eye, 15, 30, 60 minutes, FIG. 1): confirmed in a concentration-dependent manner; intraocular pressure [4]: did not show increase and/or decrease; Incremental difference in Schirmer's test at 0.5 hours after ocular instillation ([2]; 0.00001% ophthalmic solution): 2.8 mm/min; Incremental difference in Schirmer's test at 8 hours after ocular instillation ([2]; 0.00001% ophthalmic solution, 8 hours): 0.4 mm/min; Incremental difference in Schirmer's test at 0.5 hours after ocular instillation ([2]; 0.0001% ophthalmic solution): 6.0 mm/min; Incremental difference in Schirmer's test at 8 hours after ocular instillation ([2]; 0.0001% ophthalmic solution, 8 hours): 1.7 mm/min; lacrimal secretion at 8 hours after ocular instillation ([2]; 0.0001 to 0.01% instilled groups, 8 hours, FIG. 3): highly enhanced; increase of tear volumes at 16 hours after ocular instillation ([2]; 0.001 and 0.01% instilled groups, 16 hours, FIG. 3): increase of tear volumes was observed; lacrimal secretion ([2]; olodaterol-instilled groups 0.00001 to 0.01%, FIG. 3): enhanced; intrinsic activity against β1 adrenergic receptors (β1 adrenergic receptors): weak intrinsic activity
CC(Cc1ccc(O)cc1)NCC(O)c1cc(O)cc(O)c1 (stereo not shown) [fenoterol] | not confirmed | 1.8 | 0.0 | 4.8 | 0.2 | 6.1 | 0.9 | 3.6 | 1.1 | confirmed to enhance | 
